Reference: US20210403485A1, “PYRAZOLOPYRIMIDINE DERIVATIVE AS SELECTIVE TRK INHIBITOR” (SHANDONG LUYE PHARMACEUTICAL CO., LTD., priority 2018, published 2021)
Where two headings read alike, the source gives them in different places.

Tests used:
TrkA = molecular target: T1, TrkA (Homo sapiens, UniProt P04629); assay: Kinase inhibitory activity (33P-ATP, filtration-binding method, Reaction Biology Corp.); format: biochemical; settings: read-out: Half maximal inhibitory concentration IC50 for kinases, TrkA
T1 construct: purchased Reaction Biology Corp
Procedure: (§1) The mixture was incubated at room temperature for 20 minutes, added with ^33P-ATP at a certain concentration to start the reaction, and then incubated at room temperature for 120 minutes. Finally, the radioactivity of the reactant was detected by the filtration-binding method. The final kinase activity was expressed as the ratio of the remaining kinase activity in the test sample to the kinase activity of the DMSO control. The dose-response curves were fitted and IC50 values were calculated by GraphPad software.

TrkC = molecular target: T2, TrkC (Homo sapiens, UniProt Q16288); assay: as above; format: biochemical; settings: read-out: Half maximal inhibitory concentration IC50 for kinases, TrkC
T2 construct: purchased Reaction Biology Corp
Procedure: as §1

Ros1 = molecular target: T3, Ros1 (Homo sapiens, UniProt P08922); assay: as above; format: biochemical; settings: read-out: Half maximal inhibitory concentration IC50 for kinases, Ros1
T3 construct: purchased Reaction Biology Corp
Procedure: as §1

ALK = molecular target: T4, ALK (Homo sapiens, UniProt Q9UM73); assay: as above; format: biochemical; settings: read-out: Half maximal inhibitory concentration IC50 for kinases, ALK
T4 construct: purchased Reaction Biology Corp
Procedure: as §1

TrkA-G595R = molecular target: T5, TrkA-G595R (Homo sapiens, UniProt P04629, G595R); assay: as above; format: biochemical; settings: read-out: Half maximal inhibitory concentration IC50 for kinases, TrkA-G595R
T5 construct: purchased Reaction Biology Corp
Procedure: as §1

TrkA-G667C = molecular target: T6, TrkA-G667C (Homo sapiens, UniProt P04629, G667C); assay: as above; format: biochemical; settings: read-out: Half maximal inhibitory concentration IC50 for kinases, TrkA-G667C
T6 construct: purchased Reaction Biology Corp
Procedure: as §1

Ba/F3 LMNA-NTRK1-WT = molecular target: T7, Ba/F3 LMNA-NTRK1-WT (Homo sapiens, UniProt P04629); assay: Inhibitory activity against cell proliferation (CellTiter-Glo, 72 hours); format: cell-based; settings: read-out: Half maximal inhibitory concentration IC50 of cells, Ba/F3 LMNA-NTRK1-WT
T7 construct: fused on or other part: N-terminal part of LMNA as fusion partner (part of the key); P02545 (Prelamin-A/C)
Procedure: (§2) Adenosine Triphosphate (ATP) is an energy carrier commonly used in various life activities in nature, and is the minimum unit for energy storage and transfer. The CellTiter-Glo™ cell viability assay kit uses luciferase as an assay agent, which requires the involvement of ATP in luminescence. The CellTiter-Glo™ reagent is added into cell culture medium to measure the luminescence value. The luminescence signal is directly proportional to the amount of ATP in the system, and the ATP is positively correlated with the number of viable cells. Therefore, the proliferation of cells can be detected by detecting the ATP content using the CellTiter-Glo kit.
(§3) a) Cells in the logarithmic growth phase were collected and counted using a […]. The cell viability was detected by the trypan blue exclusion method, and the cell viability was kept over 90%.
(§4) b) The cell concentration was adjusted; 90 μL of the cell suspension was added to a 96-well plate.
(§5) a) A 10-fold compound solution was prepared, with the highest concentration being 10 μM (a total of 9 concentrations, 3-fold dilution). 10 μL of compound solution was added to each well of a 96-well plate inoculated with cells, and three duplicate wells were set for each compound concentration.
(§6) a) The CTG reagent was thawed and the cell plate was equilibrated to room temperature for 30 minutes.
(§7) b) An equal volume of CTG solution was added to each well.
(§8) c) The plate was shaken on an orbital shaker for 5 minutes to lyse the cells.
(§9) d) The cell plate was placed at room temperature for 20 minutes to stabilize the luminescence signal.
(§10) e) The luminescence value was read.
(§11) The data were analyzed using GraphPad Prism 5.0 software, fitted with nonlinear S-curve regression to give dose-response curves, and IC50 values were calculated therefrom.

BaF3 ETV6-NTRK3-WT = molecular target: T8, BaF3 ETV6-NTRK3-WT (Homo sapiens, UniProt Q16288); assay: as above; format: cell-based; settings: read-out: Half maximal inhibitory concentration IC50 of cells, BaF3 ETV6-NTRK3-WT
T8 construct: fused on or other part: N-terminal part of ETV6 (TEL) as fusion partner (part of the key); P41212 (Transcription factor ETV6)
Procedure: as §2, §3, §4, §5, §6, §7, §8, §9, §10, §11

Ba/F3 LMNA-NTRK1-F589L = molecular target: T9, Ba/F3 LMNA-NTRK1-F589L (Homo sapiens, UniProt P04629, F589L, cells depend on it); assay: as above; format: cell-based; settings: read-out: Half maximal inhibitory concentration IC50 of cells, Ba/F3 LMNA-NTRK1-F589L
T9 construct: fused on or other part: N-terminal part of LMNA as fusion partner (part of the key); P02545 (Prelamin-A/C)
Procedure: as §2, §3, §4, §5, §6, §7, §8, §9, §10, §11

BaF3 LMNA-NTRK1-G667A = molecular target: T10, BaF3 LMNA-NTRK1-G667A (Homo sapiens, UniProt P04629, G667A, cells depend on it); assay: as above; format: cell-based; settings: read-out: Half maximal inhibitory concentration IC50 of cells, BaF3 LMNA-NTRK1-G667A
T10 construct: fused on or other part: N-terminal part of LMNA as fusion partner (part of the key); P02545 (Prelamin-A/C)
Procedure: as §2, §3, §4, §5, §6, §7, §8, §9, §10, §11

BaF3 LMNA-NTRK1-G595R = molecular target: T11, BaF3 LMNA-NTRK1-G595R (Homo sapiens, UniProt P04629, G595R, cells depend on it); assay: as above; format: cell-based; settings: read-out: Half maximal inhibitory concentration IC50 of cells, BaF3 LMNA-NTRK1-G595R
T11 construct: fused on or other part: N-terminal part of LMNA as fusion partner (part of the key); P02545 (Prelamin-A/C)
Procedure: as §2, §3, §4, §5, §6, §7, §8, §9, §10, §11

[1] = Pharmacokinetic test of compounds in rats (plasma, LC/MS/MS); format: in vivo, male SD rats
Procedure: Experimental purpose: male SD rats aged 7-9 weeks were selected as test animals, and the drug concentrations of the compounds in plasma at different time points after single intravenous injection (IV) and intragastric administration (PO) of the compounds were measured by an LC/MS/MS method, so that the pharmacokinetic behavior of the compounds disclosed herein in rats was studied, and the pharmacokinetic characteristic of the compounds was evaluated.
(§12) Drug preparation: the compounds were all prepared into clear solution by taking 5% DMSO+10% solutol+85% water as vehicle, and were used for administration in IV and PO groups. The dose of each compound administered was: IV, 3 mg/kg; PO, 10 mg/kg.

BaF3 ETV6-NTRK3-G623R = molecular target: T12, BaF3 ETV6-NTRK3-G623R (Homo sapiens, UniProt Q16288, G623R, cells depend on it); assay: Inhibitory activity against cell proliferation (CellTiter-Glo, 72 hours); format: cell-based; settings: read-out: Half maximal inhibitory concentration IC50 of cells, BaF3 ETV6-NTRK3-G623R
T12 construct: fused on or other part: N-terminal part of ETV6 (TEL) as fusion partner (part of the key); P41212 (Transcription factor ETV6)
Procedure: as §2, with “kit. In this test, the cell lines used are Ba/F3 LMNA-NTRK1-WT, Ba/F3 LMNA-NTRK1-F589L, BaF3 LMNA-NTRK1-G595R, BaF3 LMNA-NTRK1-G667A, BaF3 ETV6-NTRK3-WT, BaF3 ETV6-NTRK3-G623R, and Ba/F3 SLC34A2-ROS1-WT stable cell strains, 5000 cells/well.” for “kit.”
as §3, §4
c) Cells in the 96-well plate were incubated overnight at 37° C. with 5% CO2 and 95% humidity.
as §5
b) The cells in the 96-well plate added with compound were incubated for 72 hours at 37° C. with 5% CO2 and 95% humidity, followed by the CTG (CellTiter-Glo) analysis.
as §6, §7, §8, §9, §10, §11

[2] = Pharmacokinetic test of compounds in mice (plasma, LC/MS/MS); format: in vivo, male CD-1 mice; settings: for Cmax: read-out: Peak concentration Cmax; for AUC(0-t): read-out: Area under the curve AUC0-last
Procedure: Experimental purpose: male CD-1 mice aged 7-9 weeks were selected as test animals, and the drug concentrations of the compounds in plasma at different time points after single intravenous injection (IV) and intragastric administration (PO) of the compounds were measured by an LC/MS/MS method, so that the pharmacokinetic behavior of the compounds disclosed herein in mice was studied, and the pharmacokinetic characteristic of the compounds was evaluated.
as §12

Ba/F3 SLC34A2-ROS1-WT = molecular target: T13, Ba/F3 SLC34A2-ROS1-WT (Homo sapiens, UniProt P08922); assay: Inhibitory activity against cell proliferation (CellTiter-Glo, 72 hours); format: cell-based; settings: read-out: Half maximal inhibitory concentration IC50 of cells, Ba/F3 SLC34A2-ROS1-WT
T13 construct: fused on or other part: N-terminal part of SLC34A2 as fusion partner (part of the key); O95436 (Sodium-dependent phosphate transport protein 2B)
Procedure: as §2, §3, §4, §5, §6, §7, §8, §9, §10, §11

[3] = male, CD-1, mouse, plasma, PO, 10 mg/kg

T5 sequence (P04629 33-796 G595R): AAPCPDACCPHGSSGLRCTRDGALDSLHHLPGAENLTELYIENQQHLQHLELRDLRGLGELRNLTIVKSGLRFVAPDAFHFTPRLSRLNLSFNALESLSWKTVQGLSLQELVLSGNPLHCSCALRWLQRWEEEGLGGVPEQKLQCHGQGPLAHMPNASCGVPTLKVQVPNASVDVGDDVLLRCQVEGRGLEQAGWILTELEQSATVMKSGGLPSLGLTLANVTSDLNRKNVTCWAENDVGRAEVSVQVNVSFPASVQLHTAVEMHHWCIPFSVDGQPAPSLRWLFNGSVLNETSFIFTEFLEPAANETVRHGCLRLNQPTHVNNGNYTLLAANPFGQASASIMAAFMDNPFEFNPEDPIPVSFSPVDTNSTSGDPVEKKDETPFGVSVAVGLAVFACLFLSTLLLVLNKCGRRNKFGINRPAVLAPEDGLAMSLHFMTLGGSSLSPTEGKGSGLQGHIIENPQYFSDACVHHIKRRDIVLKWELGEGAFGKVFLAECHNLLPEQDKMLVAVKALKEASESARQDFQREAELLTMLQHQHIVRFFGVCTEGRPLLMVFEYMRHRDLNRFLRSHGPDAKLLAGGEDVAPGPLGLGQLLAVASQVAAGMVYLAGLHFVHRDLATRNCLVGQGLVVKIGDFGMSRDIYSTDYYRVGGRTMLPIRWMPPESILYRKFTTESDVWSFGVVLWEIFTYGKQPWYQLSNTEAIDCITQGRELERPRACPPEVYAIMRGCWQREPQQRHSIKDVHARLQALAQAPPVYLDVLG
T6 sequence (P04629 33-796 G667C): as the sequence (P04629 33-796 G595R) above, with R563G, G635C counted along it
T3 sequence (P08922 28-2347): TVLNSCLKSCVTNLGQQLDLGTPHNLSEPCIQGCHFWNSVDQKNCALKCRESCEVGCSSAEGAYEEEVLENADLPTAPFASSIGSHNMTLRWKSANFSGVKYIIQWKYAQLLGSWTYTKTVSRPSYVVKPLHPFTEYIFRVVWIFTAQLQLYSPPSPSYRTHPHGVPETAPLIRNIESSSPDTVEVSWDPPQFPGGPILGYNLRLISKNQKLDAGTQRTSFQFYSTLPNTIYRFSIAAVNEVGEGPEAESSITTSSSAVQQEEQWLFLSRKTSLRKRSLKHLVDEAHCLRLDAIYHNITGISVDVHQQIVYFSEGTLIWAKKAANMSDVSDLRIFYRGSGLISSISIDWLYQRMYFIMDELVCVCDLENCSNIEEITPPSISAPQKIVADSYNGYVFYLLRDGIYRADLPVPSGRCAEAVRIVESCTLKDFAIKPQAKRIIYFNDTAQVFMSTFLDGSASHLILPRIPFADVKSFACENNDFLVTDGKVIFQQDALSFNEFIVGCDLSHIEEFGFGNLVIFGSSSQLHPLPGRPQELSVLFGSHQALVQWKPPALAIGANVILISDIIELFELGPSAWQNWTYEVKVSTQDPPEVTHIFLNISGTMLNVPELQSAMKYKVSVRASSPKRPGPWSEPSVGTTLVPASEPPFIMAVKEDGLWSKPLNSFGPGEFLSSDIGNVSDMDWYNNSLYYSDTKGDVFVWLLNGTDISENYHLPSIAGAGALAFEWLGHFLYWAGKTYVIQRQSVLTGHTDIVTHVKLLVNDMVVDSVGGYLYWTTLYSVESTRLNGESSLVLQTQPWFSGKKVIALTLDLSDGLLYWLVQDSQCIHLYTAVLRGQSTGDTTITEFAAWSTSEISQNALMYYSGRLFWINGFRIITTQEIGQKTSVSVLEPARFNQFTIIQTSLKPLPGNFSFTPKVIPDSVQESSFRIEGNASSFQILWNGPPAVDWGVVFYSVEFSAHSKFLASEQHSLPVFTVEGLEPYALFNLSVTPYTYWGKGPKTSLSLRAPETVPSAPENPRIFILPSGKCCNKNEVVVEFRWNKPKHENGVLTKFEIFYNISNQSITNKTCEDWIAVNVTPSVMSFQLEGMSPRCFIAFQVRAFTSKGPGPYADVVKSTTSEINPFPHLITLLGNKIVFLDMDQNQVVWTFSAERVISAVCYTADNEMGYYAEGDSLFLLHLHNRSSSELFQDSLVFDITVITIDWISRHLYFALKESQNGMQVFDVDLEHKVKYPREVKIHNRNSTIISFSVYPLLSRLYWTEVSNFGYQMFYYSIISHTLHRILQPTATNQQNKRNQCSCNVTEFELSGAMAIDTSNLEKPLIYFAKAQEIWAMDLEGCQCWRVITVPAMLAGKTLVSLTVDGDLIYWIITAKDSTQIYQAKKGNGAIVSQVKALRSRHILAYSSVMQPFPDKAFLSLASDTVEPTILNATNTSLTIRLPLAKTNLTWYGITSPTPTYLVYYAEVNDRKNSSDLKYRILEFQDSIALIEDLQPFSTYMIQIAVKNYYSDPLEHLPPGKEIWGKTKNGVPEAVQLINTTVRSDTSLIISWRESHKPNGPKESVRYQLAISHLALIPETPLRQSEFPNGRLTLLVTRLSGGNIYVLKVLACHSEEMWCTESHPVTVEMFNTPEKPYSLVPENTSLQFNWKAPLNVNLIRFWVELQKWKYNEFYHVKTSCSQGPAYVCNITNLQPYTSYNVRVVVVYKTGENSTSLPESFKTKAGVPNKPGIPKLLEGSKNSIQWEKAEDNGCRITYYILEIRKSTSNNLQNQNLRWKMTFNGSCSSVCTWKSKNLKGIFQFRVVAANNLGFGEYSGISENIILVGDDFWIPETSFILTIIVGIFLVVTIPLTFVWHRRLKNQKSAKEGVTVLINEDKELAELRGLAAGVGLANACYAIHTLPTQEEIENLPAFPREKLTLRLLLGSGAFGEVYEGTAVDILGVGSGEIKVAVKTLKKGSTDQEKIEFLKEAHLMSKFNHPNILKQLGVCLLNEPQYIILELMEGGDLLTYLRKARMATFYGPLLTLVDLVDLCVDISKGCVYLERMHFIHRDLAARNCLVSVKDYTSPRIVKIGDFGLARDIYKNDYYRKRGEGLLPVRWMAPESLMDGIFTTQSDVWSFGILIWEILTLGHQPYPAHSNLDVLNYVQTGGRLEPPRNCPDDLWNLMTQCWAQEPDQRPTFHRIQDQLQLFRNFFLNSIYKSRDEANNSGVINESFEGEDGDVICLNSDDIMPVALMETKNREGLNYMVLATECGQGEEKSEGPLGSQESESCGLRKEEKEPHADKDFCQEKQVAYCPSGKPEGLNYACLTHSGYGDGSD
T2 sequence (Q16288 32-839): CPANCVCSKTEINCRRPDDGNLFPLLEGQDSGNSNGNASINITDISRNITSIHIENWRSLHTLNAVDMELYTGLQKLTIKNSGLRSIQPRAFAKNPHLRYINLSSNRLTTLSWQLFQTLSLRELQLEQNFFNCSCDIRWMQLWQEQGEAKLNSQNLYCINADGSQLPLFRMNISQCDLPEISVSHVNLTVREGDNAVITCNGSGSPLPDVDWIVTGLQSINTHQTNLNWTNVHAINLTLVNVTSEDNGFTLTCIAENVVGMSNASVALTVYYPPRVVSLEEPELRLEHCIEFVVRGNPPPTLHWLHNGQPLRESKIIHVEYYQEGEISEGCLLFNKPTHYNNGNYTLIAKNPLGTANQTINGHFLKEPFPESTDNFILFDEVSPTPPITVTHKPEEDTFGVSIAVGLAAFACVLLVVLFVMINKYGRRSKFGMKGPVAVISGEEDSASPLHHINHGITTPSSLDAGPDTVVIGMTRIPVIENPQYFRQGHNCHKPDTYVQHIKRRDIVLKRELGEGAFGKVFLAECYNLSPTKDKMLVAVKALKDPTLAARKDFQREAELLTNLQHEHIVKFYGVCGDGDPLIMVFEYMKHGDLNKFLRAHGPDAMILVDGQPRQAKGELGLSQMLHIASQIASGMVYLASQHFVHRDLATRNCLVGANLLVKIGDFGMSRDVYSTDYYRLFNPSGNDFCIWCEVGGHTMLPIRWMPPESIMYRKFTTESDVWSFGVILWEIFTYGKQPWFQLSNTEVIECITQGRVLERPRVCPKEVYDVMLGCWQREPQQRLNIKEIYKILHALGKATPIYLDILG
T1 sequence (P04629 33-796): as the sequence (P04629 33-796 G595R) above, with R563G counted along it
T10 sequence (P04629 whole entry G667A, the tested form may be a part): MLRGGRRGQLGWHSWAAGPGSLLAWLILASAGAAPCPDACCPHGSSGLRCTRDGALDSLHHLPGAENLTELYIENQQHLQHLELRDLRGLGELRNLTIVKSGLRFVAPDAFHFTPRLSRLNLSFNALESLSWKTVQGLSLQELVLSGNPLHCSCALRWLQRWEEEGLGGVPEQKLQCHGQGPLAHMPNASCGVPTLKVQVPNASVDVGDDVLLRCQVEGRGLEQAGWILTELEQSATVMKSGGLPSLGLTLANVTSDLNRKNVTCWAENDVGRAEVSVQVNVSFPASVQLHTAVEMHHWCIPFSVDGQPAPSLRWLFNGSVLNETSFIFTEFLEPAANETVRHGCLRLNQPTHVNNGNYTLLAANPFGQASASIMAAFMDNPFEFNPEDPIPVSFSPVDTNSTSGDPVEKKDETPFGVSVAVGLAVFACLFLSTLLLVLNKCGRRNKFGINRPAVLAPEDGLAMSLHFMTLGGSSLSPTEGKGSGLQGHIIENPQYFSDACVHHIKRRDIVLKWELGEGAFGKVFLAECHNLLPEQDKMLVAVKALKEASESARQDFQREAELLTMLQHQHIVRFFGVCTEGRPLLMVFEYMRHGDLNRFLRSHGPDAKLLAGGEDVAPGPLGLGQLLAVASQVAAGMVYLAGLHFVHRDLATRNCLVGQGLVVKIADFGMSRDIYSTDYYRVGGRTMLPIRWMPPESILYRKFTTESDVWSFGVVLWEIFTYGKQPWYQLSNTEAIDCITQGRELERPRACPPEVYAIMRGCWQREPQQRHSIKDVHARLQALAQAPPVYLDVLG
T9 sequence (P04629 whole entry F589L, the tested form may be a part): as the sequence (P04629 whole entry G667A, the tested form may be a part) above, with F589L, A667G counted along it
T7 sequence (P04629 whole entry, stated change not applied, the tested form may be a part): as the sequence (P04629 whole entry G667A, the tested form may be a part) above, with A667G counted along it
T11 sequence (P04629 whole entry G595R, the tested form may be a part): as the sequence (P04629 whole entry G667A, the tested form may be a part) above, with G595R, A667G counted along it

Structure (SMILES)	IC50 (TrkA)	IC50 (TrkC)	IC50 (Ros1)	IC50 (ALK)	IC50 (TrkA-G595R)	IC50 (TrkA-G667C)	GI50 (Ba/F3 LMNA-NTRK1-WT)	GI50 (BaF3 ETV6-NTRK3-WT)	GI50 (Ba/F3 LMNA-NTRK1-F589L)	GI50 (BaF3 LMNA-NTRK1-G667A)	GI50 (BaF3 LMNA-NTRK1-G595R)	GI50 (BaF3 ETV6-NTRK3-G623R)	Apparent clearance Cl ([2]; IV, 3 mg/kg)	also measured
O=C1N[C@@H]2COC[C@@H]2Oc2ncc(F)cc2[C@@H]2COCCN2c2ccn3ncc1c3n2 [WX005B]	> 1000 nM													
O=C1N[C@@H]2COC[C@@H]2Oc2ncc(F)cc2[C@H]2COCCN2c2ccn3ncc1c3n2 [WX005A]	4.7 nM	0.1 nM	3.1 nM	103 nM	0.3 nM	0.5 nM								
C[C@H]1CNC(=O)c2cnn3ccc(nc23)N2CCOC[C@@H]2c2cc(F)cnc2O1 [WX004B]	2.7 nM	0.3 nM	8.1 nM	134 nM	2.7 nM	18.2 nM	0.8 nM	1.5 nM	37.4 nM	3.9 nM	1.2 nM	3.2 nM	8.14 mL/min/kg	Apparent clearance Cl ([1]; IV, 3 mg/kg): 30.9 mL/min/kg; Apparent volume of distribution Vd ([1]; IV, 3 mg/kg): 1.4 L/kg; Area under the curve AUC0-last ([1]; IV, 3 mg/kg): 4.076 µM·h; Half-life T1/2 ([1]; IV, 3 mg/kg): 36 min; Area under the curve AUC0-last ([1]; PO, 10 mg/kg): 4.715 µM·h; Bioavailability F % ([1]; PO, 10 mg/kg): 35%; Time to peak Tmax ([1]; PO, 10 mg/kg): 48 min; Cmax ([1]; PO, 10 mg/kg, read-out: Peak concentration Cmax): 1.77 µM; Apparent volume of distribution Vd ([2]; IV, 3 mg/kg): 0.60 L/kg; Area under the curve AUC0-last ([2]; IV, 3 mg/kg): 15.393 µM·h; Half-life T1/2 ([2]; IV, 3 mg/kg): 63 min; Area under the curve AUC0-last ([2]; PO, 10 mg/kg): 37.294 µM·h; Bioavailability F % ([2]; PO, 10 mg/kg): 73%; Time to peak Tmax ([2]; PO, 10 mg/kg): 30 min; Cmax ([2]; PO, 10 mg/kg): 11.1 µM
O=C1N[C@@H]2COC[C@@H]2Oc2ncc(F)cc2C2COCCN2c2ccn3ncc1c3n2 (stereo partly drawn) [WX005A]							0.7 nM	2.9 nM	56.6 nM	3.8 nM	5.2 nM	11 nM	9.78 mL/min/kg	GI50 (Ba/F3 SLC34A2-ROS1-WT): 246 nM; Vd ([2]; male, CD-1, mouse, plasma, IV, 3 mg/kg, read-out: Apparent volume of distribution Vd): 0.78 L/kg; AUC(0-t) ([2]; male, CD-1, mouse, plasma, IV, 3 mg/kg): 12 µM·h; half-life ([2]; male, CD-1, mouse, plasma, IV, 3 mg/kg, read-out: Half-life T1/2 (converted)): 61.2 min; AUC(0-t) [2, 3]: 21.4 µM·h; bioavailability ([2]; male, CD-1, mouse, plasma, PO, 10 mg/kg, read-out: Bioavailability F %): 54%; Cmax [2, 3]: 7.12 µM; Tmax ([2]; male, CD-1, mouse, plasma, PO, 10 mg/kg, read-out: Time to peak Tmax): 22.8 min
O=C1NC2(CC2)COc2ccc(F)cc2[C@@H]2CCCCN2c2ccn3ncc1c3n2 [WX002B]	526 nM													
O=C1NC2(CC2)CNc2ncc(F)cc2C2COCCN2c2ccn3ncc1c3n2 (single isomer, unassigned) [WX010A]	4.1 nM	0.3 nM	28.7 nM	> 1000 nM	8.9 nM	189 nM								
